Results reported in ChEMBL document CHEMBL3507680, “University of Dundee, Gates Library screen for HepG2 cell viability”.

Assay: Human HepG2 cell viability assay in 384 well format
Format: toxicity, cell-based
Parameters: dose 125 nL, time 70.5 hour; cytotoxicity at 70.5 h: concentration not given beside the values
Settings: HepG2 cells, read-out: Inhibition

| Structure (SMILES) | cytotoxicity at 70.5 h [%] |
| --- | --- |
| Cc1cccc(CN2C(=O)CCC23CCN(C(=O)c2ccco2)CC3)n1 | 0.736 |
| Cc1cccc(CN2C(=O)CCC23CCN(C(=O)N2CCCC2)CC3)n1 | 0.698 |
| CN1CCN(C(=O)CCc2ccccc2)Cc2cccnc21 | 16.1 |
| COCC1CN(C(=O)Cc2ccccn2)Cc2ncnn2C1 (stereo not drawn) | 16.8 |
| O=C1[C@H]2CN(Cc3ccccc3)C[C@H]2CN1c1cncnc1 | -2.62 |
| Cc1occc1C(=O)N1CCC2(CCN(Cc3cccs3)C2)CC1 | -1.13 |
| Cc1ccc(CN2Cc3nnn(C)c3C(COCC3CC3)C2)o1 (stereo not drawn) | -5.52 |
| O=C1[C@H]2CN(Cc3ccco3)C[C@H]2CN1c1cncnc1 | -5.56 |
| Cc1occc1C(=O)N1CCC2(CC1)CN(Cc1nccs1)CCO2 | 7.01 |
| Fc1cccc(-c2nnn3c2COC(CNCc2cccs2)C3)c1 (stereo not drawn) | 1.1 |
| CNC(=O)[C@H]1C[C@@H]2CN(S(=O)(=O)c3ccc(OC)cc3)C[C@@H]2N1C | -1.32 |
| CNC(=O)[C@H]1C[C@@H]2CN(S(=O)(=O)c3ccc(C)c(F)c3)C[C@@H]2N1C | -3.95 |
| O=C(Cc1ccccn1)N1CCc2ncnc(N3CCCC3)c2CC1 | -0.341 |
| COCc1nnc2n1CCN(Cc1ccoc1)C2 | -3.74 |
| Cc1ccsc1C(=O)N1CCCn2c(nc(CN(C)C)cc2=O)C1 | 8.58 |
| O=C(c1ccsc1)N1C[C@H]2CN(Cc3cccnc3)C(=O)[C@H]2C1 | 4.1 |
| Cc1ccc(C(=O)N2CC3(CCCCC3)c3cc(C(=O)O)ccc32)cn1 | 0.0823 |
| O=C(C1CCC1)N1CCC2(CCN(Cc3cccc(F)c3)CC2)CC1 | 18.6 |
| O=C(NC1CCCC1)[C@H]1CC[C@@H]2[C@@H](CCN2c2ncc(F)cn2)O1 | 13.4 |
| CC(=O)N1CCCC2(CN(Cc3ccc(C)s3)CCO2)C1 (stereo not drawn) | 0.871 |
| O=C(NC1CC1)N1CC[C@H](OCC2CC2)[C@@H]1Cc1cccnc1 | 1.68 |
| O=C1CC2(CCCCN2C(=O)Cc2ccccc2)CN1c1cccnc1 (stereo not drawn) | -1.11 |
| O=C(N1CCOCC1)N1CCc2ncnc(Oc3cccnc3)c2CC1 | -2.03 |
| O=C(c1ccco1)N1CCc2ncnc(Oc3cccnc3)c2CC1 | -0.464 |
| CCc1cnc(N2CC[C@@H]3CN(CCC(C)C)S(=O)(=O)[C@@H]3CC2)nc1 | -4.3 |
| CN(C)C(=O)CN1C[C@H]2CCN(c3ncccn3)CC[C@H]2S1(=O)=O | -0.338 |
| O=C(NCc1cccs1)C1CNCC12CCOCC2 (stereo not drawn) | 0.759 |

| Structure (SMILES) | cytotoxicity at 70.5 h [%] |
| --- | --- |
| CN1CCC2(CCN(Cc3nccs3)CC2)C1=O | -1.5 |
| COCCNC(=O)[C@@H]1CC[C@@H]2[C@@H](CCN2c2ncc(F)cn2)O1 | -3.55 |
| COc1ccccc1CN1CC[C@]2(C[C@H](OC)CO2)C1 | -12.6 |
| CN1CCC2(COCc3cnc(N4CCOCC4)nc32)C1 (stereo not drawn) | -16.8 |
| O=C(NC[C@]12COC[C@H]1CN(Cc1nccs1)C2)c1ccccc1 | -15 |
| CN(C)CCN1CCCC12CCN(C(=O)c1ccoc1)CC2 | -9.15 |
| Cc1noc(C)c1CN1C[C@H](C)[C@]2(CCN(Cc3cccnc3)C2=O)C1 | -8.9 |
| CN(C)CCN1CCCC12CCN(C(=O)c1ccncc1)CC2 | -7.81 |
| COc1cc(C(=O)N2CC3(CCNCC3)c3cc(Cl)ccc32)ccn1 | -6.87 |
| Cc1cccc(CN2CCCC3(CCC(=O)N3CCN(C)C)CC2)n1 (stereo not drawn) | -3.65 |
| COCC1CN(Cc2ccc(C)o2)Cc2cnn(CC3CCOCC3)c21 (stereo not drawn) | 6.49 |
| c1cncc(COCc2nnc3n2CCN(Cc2ccco2)C3)c1 | 1.97 |
| c1ccc(O[C@@H]2CC[C@H]3[C@H]2OCCN3CC2CCOCC2)nc1 | 1.68 |
| c1ccc(CO[C@H]2CC[C@H]3[C@H]2OCCN3Cc2nccs2)nc1 | 1.15 |
| Cc1cccc(CN2CCC3(CCN(c4cccnc4)C3=O)C2)n1 (stereo not drawn) | 2.95 |
| Cc1noc(C)c1CN1CCO[C@H]2[C@H](Oc3ccccn3)CC[C@@H]21 | -0.309 |
| c1ccc(O[C@@H]2CN(Cc3nccs3)[C@@H]3CCCO[C@@H]32)nc1 | 1.57 |
| O=C1N(c2cccnc2)CCC12CCCN(Cc1ccco1)C2 (stereo not drawn) | -3.89 |
| COc1ccc(CN2CCO[C@H]3[C@H](Oc4ccccn4)CC[C@@H]32)cc1 | -2.38 |
| CC(=O)N1[C@H](Cn2cncn2)C[C@@H]2CN(Cc3ccncc3)CC[C@@H]21 | -3.75 |
| CN1CCN(Cc2cn3c(n2)CN(C(=O)c2cccn2C)CC3)CC1 | -4.16 |
| Cn1cnc2c(N3CCCC3)nc(C3CCN(CC4CC4)CC3)cc21 | -0.352 |
| O=C(N1CCOCC1)[C@@]12CCO[C@@H]1CCN(CCN1CCCCC1)C2 | -20.4 |
| C[C@@H]1CN(Cc2cccnc2)C[C@]12CCN(CCN1CCCC1)C2=O | -4.97 |
| O=C1N(c2cccnc2)CCC12CCCN(Cc1cccnc1)C2 (stereo not drawn) | -4.25 |
| CO[C@H]1CCN(Cc2ccccn2)[C@@H]2CN(Cc3ccco3)C[C@H]12 | -20.1 |
